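Method: 48-hour compound exposure of cells in 96-well plates, five concentrations, linear interpolation of endpoints. GI50: concentration for 50% inhibition of growth.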 The source made the active and inactive calls. Cut-off read from the data, not from the text of the source: active = GI50 up to about 1.1 µM and inactive = higher.
What was measured:
Assay in all cases: NCI tumour cell line growth inhibition, 48 h
[1] = tested on: SNB-75
[2] = tested on: A549
[3] = tested on: UO-31
[4] = tested on: RPMI-8226
[5] = tested on: Hs-578T
[6] = tested on: KM12
[7] = tested on: CCRF-CEM
[8] = tested on: OVCAR-5
[9] = tested on: Malme-3M
[10] = tested on: U-251
[11] = tested on: M14
[12] = tested on: SF-268
[13] = tested on: RXF 393
[14] = tested on: CAKI-1
[15] = tested on: T47D
[16] = tested on: HCT-15
[17] = tested on: OVCAR-4
[18] = tested on: SK-MEL-2
[19] = tested on: MDA-MB-435
[20] = tested on: MOLT-4

`CC(O)C1(CNc2cc(Cl)nc(N)n2)CCCCC1` (centres undefined) was tested, and the GI50 [1] was 69.5 µM (inactive), the GI50 [2] was 77.6 µM (inactive) and the GI50 [3] was 59.2 µM (inactive). The GI50 [4] was 48.9 µM (inactive), the GI50 [5] was > 100 µM (inactive) and the GI50 [6] was 85.3 µM (inactive). For the same molecule, the GI50 [7] was 97.5 µM (inactive), the GI50 [8] was > 100 µM (inactive) and the GI50 [9] was > 100 µM (inactive). The GI50 [10] was > 100 µM (inactive), the GI50 [11] was > 100 µM (inactive) and the GI50 [12] was > 100 µM (inactive). For the same molecule, the GI50 [13] was > 100 µM (inactive), the GI50 [14] was > 100 µM (inactive) and the GI50 [15] was 59 µM (inactive). The GI50 [16] was > 100 µM, the GI50 [17] was 37.3 µM (inactive) and the GI50 [18] was > 100 µM (inactive). For the same molecule, the GI50 [19] was > 100 µM (inactive) and the GI50 [20] was 35.6 µM (inactive).
With `CCOC(=O)c1ccc(/N=c2/[nH]c3ccccc3s/c2=N/c2ccc(C(=O)OCC)cc2)cc1` the GI50 [1] was 48 µM (inactive), the GI50 [2] was 95.7 µM (inactive) and the GI50 [3] was > 100 µM (inactive). The GI50 [4] was > 100 µM (inactive), the GI50 [5] was 39.5 µM (inactive) and the GI50 [6] was > 100 µM (inactive). The GI50 [7] was > 100 µM (inactive), the GI50 [8] was > 100 µM (inactive) and the GI50 [9] was > 100 µM (inactive). For the same molecule, the GI50 [10] was 39.4 µM (inactive), the GI50 [12] was > 100 µM (inactive) and the GI50 [13] was > 100 µM (inactive). For the same molecule, the GI50 [14] was > 100 µM (inactive), the GI50 [15] was > 100 µM (inactive) and the GI50 [16] was > 100 µM. The GI50 [17] was 33.6 µM (inactive), the GI50 [18] was > 100 µM (inactive) and the GI50 [19] was > 100 µM (inactive). For the same molecule, the GI50 [20] was > 100 µM (inactive).
For `O=C(NC(OCc1ccccc1)(C(F)(F)F)C(F)(F)F)OCc1ccccc1`, the GI50 [1] was 15.6 µM (inactive), the GI50 [2] was 15 µM (inactive) and the GI50 [3] was 11.2 µM (inactive). For the same molecule, the GI50 [4] was 16.4 µM (inactive), the GI50 [5] was 13.9 µM (inactive) and the GI50 [6] was 16.4 µM (inactive). The GI50 [7] was 16.1 µM (inactive), the GI50 [8] was 14.3 µM (inactive) and the GI50 [9] was 18 µM (inactive). The GI50 [10] was 14.1 µM (inactive), the GI50 [11] was 18.9 µM (inactive) and the GI50 [12] was 18.2 µM (inactive). For the same molecule, the GI50 [13] was 12.5 µM (inactive), the GI50 [14] was 14.4 µM (inactive) and the GI50 [15] was 15.7 µM (inactive). The GI50 [16] was 13.8 µM, the GI50 [18] was 15.3 µM (inactive) and the GI50 [19] was 17.3 µM (inactive). The GI50 [20] was 18.1 µM (inactive).
With `S=C1C(CCCOCc2ccccc2)C2CCCC23CC2(CCN13)OCCS2` (centres undefined) the GI50 [1] was > 10 µM (inactive), the GI50 [3] was > 10 µM (inactive) and the GI50 [4] was > 10 µM (inactive). For the same molecule, the GI50 [5] was > 10 µM (inactive), the GI50 [6] was > 10 µM (inactive) and the GI50 [7] was > 10 µM (inactive). For the same molecule, the GI50 [8] was > 10 µM (inactive), the GI50 [9] was > 10 µM (inactive) and the GI50 [10] was > 10 µM (inactive). The GI50 [11] was > 10 µM (inactive), the GI50 [12] was > 10 µM (inactive) and the GI50 [13] was > 10 µM (inactive). For the same molecule, the GI50 [14] was > 10 µM (inactive), the GI50 [15] was > 10 µM (inactive) and the GI50 [16] was > 10 µM. For the same molecule, the GI50 [17] was > 10 µM (inactive), the GI50 [18] was > 10 µM (inactive) and the GI50 [19] was > 10 µM (inactive). For the same molecule, the GI50 [20] was > 10 µM (inactive).
In the case of `COC1/C=C/C(C)C(OC)CC(O)/C=C/C(C)C(C(C)C(OC)C(C)CCC(=O)C(C)C(C/C=C/N(C)C=O)OC)OC(=O)/C=C/C=C(\C)CC(OC)C(OC)C2=CC(=O)O[C@@H](C(C)C(OC)C1)[C@H]2O` (some centres undefined), the GI50 [1] was 0.034 µM (active), the GI50 [2] was 0.0518 µM (active) and the GI50 [3] was 0.0419 µM (active). For the same molecule, the GI50 [4] was 0.346 µM (active), the GI50 [5] was 0.0307 µM (active) and the GI50 [6] was 0.0399 µM (active). The GI50 [7] was 0.0499 µM (active), the GI50 [8] was 0.0479 µM (active) and the GI50 [9] was 0.04 µM (active). For the same molecule, the GI50 [10] was 0.0303 µM (active), the GI50 [11] was 0.0384 µM (active) and the GI50 [12] was 0.0442 µM (active). For the same molecule, the GI50 [13] was 0.039 µM (active), the GI50 [14] was 0.0148 µM (active) and the GI50 [15] was 0.0571 µM (active). For the same molecule, the GI50 [16] was 0.015 µM, the GI50 [17] was 0.0421 µM (active) and the GI50 [19] was 0.0532 µM (active). The GI50 [20] was 0.0681 µM (active).
For `N#CC(/N=N/c1ccccc1)c1nc2ccccc2o1` (centres undefined), the GI50 [2] was 27.4 µM (inactive), the GI50 [3] was 56.6 µM (inactive) and the GI50 [4] was 23.6 µM (inactive). The GI50 [5] was 22.3 µM (inactive), the GI50 [6] was 49.7 µM (inactive) and the GI50 [7] was 34.6 µM (inactive). The GI50 [8] was 56.5 µM (inactive), the GI50 [9] was 55.8 µM (inactive) and the GI50 [10] was 22.4 µM (inactive). For the same molecule, the GI50 [11] was 44.8 µM (inactive), the GI50 [12] was 22.2 µM (inactive) and the GI50 [13] was 22.6 µM (inactive). The GI50 [14] was 31.9 µM (inactive), the GI50 [15] was 8.13 µM (inactive) and the GI50 [16] was > 100 µM. For the same molecule, the GI50 [17] was 11.2 µM (inactive), the GI50 [18] was 25.4 µM (inactive) and the GI50 [19] was > 100 µM (inactive). For the same molecule, the GI50 [20] was 49.4 µM (inactive).
In the case of `CSc1nc(C)c2c(n1)SCC2`, the GI50 [1] was > 10 µM (inactive), the GI50 [2] was > 10 µM (inactive) and the GI50 [3] was > 10 µM (inactive). For the same molecule, the GI50 [4] was > 10 µM (inactive), the GI50 [5] was 2.52 µM (inactive) and the GI50 [6] was > 10 µM (inactive). For the same molecule, the GI50 [7] was > 10 µM (inactive), the GI50 [8] was > 10 µM (inactive) and the GI50 [9] was > 10 µM (inactive). The GI50 [10] was > 10 µM (inactive), the GI50 [11] was > 10 µM (inactive) and the GI50 [12] was > 10 µM (inactive). The GI50 [13] was > 10 µM (inactive), the GI50 [14] was > 10 µM (inactive) and the GI50 [15] was > 10 µM (inactive). For the same molecule, the GI50 [16] was > 10 µM, the GI50 [17] was > 10 µM (inactive) and the GI50 [19] was > 10 µM (inactive). For the same molecule, the GI50 [20] was > 10 µM (inactive).
For `CCCCCOC(=O)c1cc2cc(CCl)ccc2oc1=O`, the GI50 [1] was 8.22 µM (inactive), the GI50 [2] was 1.97 µM (inactive) and the GI50 [3] was 2.06 µM (inactive). The GI50 [4] was 18.9 µM (inactive), the GI50 [5] was 7.23 µM (inactive) and the GI50 [6] was 13.6 µM (inactive). For the same molecule, the GI50 [7] was 13.1 µM (inactive), the GI50 [8] was 14.4 µM (inactive) and the GI50 [9] was 0.274 µM (active). The GI50 [10] was 16.8 µM (inactive), the GI50 [11] was 1.51 µM (inactive) and the GI50 [12] was 13.2 µM (inactive). For the same molecule, the GI50 [13] was 2.18 µM (inactive), the GI50 [14] was 1.75 µM (inactive) and the GI50 [15] was 4.55 µM (inactive). For the same molecule, the GI50 [16] was 3.69 µM, the GI50 [17] was 4.13 µM (inactive) and the GI50 [18] was 0.466 µM (active). For the same molecule, the GI50 [19] was 1.85 µM (inactive) and the GI50 [20] was 7.33 µM (inactive).
